Where two headings read alike, the source gives them in different places.
Experiments:
[1] = test system: lymphocytic leukemia P-388; assay: Anti-tumor activity against lymphocytic leukemia P-388 (i.p. implanted, single i.p. dose); format: in vivo, male CDF mice; details: Mus musculus, P388, ip, read-out: T/C
Protocol: The experiment was carried out in the following manner.
Five male CDF mice each having a weight of about 22 g were used for each group as test animals, and 1×10^6 cells of lymphocytic leukemia P-388 tumor were implanted intraperitoneally into the test animals. After 24 hours, 0.2 ml of phosphate-buffered physiological saline containing a test compound was administered once intraperitoneally. The life-prolongingeffect of the compound was represented by T/C.

[2] = Acute toxicity (single i.p. administration); details: mouse, in vivo, ip, ddy mice, method of Behrens-Kolber
Protocol: Five ddy mice were used for each group as test animals, and each test compound was administered once intraperitoneally to the respective groups of animals. LD50 was calculated from the death-rate of each group according to the method of Behrens-Kolber.

[3] = test system: lymphocytic leukemia P-388; details: in words; Japanese Published Unexamined Patent Application No. 170189/82; cited from earlier work
[4] = test system: a variety of bacteria; details: in words; Japanese Published Unexamined Patent Application No. 170189/82; cited from earlier work
[5] = in words; Japanese Published Unexamined Patent Application No. 210086/84; cited from earlier work
[6] = dose 12.5 mg/kg, single i.p., 24 hours after implantation of 1×10^6 P-388 cells, life-prolonging effect
[7] = dose 25 mg/kg, single i.p., 24 hours after implantation of 1×10^6 P-388 cells, life-prolonging effect

## COc1ccc(Cl)c2c1C(CO)N1C(C#N)C3CC(C(=O)O)C(C1C2)N3C (stereo not shown) [Compound 1]
[1]; 24 h
  response vs control in vivo at 12.5 mg/kg: 123%
[2]
  LD50: 50 mg/kg

## COc1ccc(Cl)c2c1C1COC3C4CC(C(=O)O)C(C(C2)N13)N4C (stereo not shown) [Compound 2]
[1]; [6]
  response vs control in vivo at 12.5 mg/kg: 140%

## COc1ccc(Br)c2c1C(CO)N1C(C#N)C3CC(C(=O)O)C(C1C2)N3C (stereo not shown) [Compound 3]
[2]
  LD50: 50 mg/kg

## COc1ccc(Br)c2c1C1COC3C4CC(C(=O)O)C(C(C2)N13)N4C (stereo not shown) [Compound 4]
[1]; [6]
  response vs control in vivo at 12.5 mg/kg: 150%

## COc1ccc(I)c2c1C(CO)N1C(C#N)C3CC(C(=O)O)C(C1C2)N3C (stereo not shown) [Compound 5]
[1]; 24 h
  response vs control in vivo at 50 mg/kg: 131%
[2]
  LD50: 100 mg/kg

## COc1ccc(I)c2c1C1COC3C4CC(C(=O)O)C(C(C2)N13)N4C (stereo not shown) [Compound 6]
[1]; [7]
  response vs control in vivo at 25 mg/kg: 124%

## COc1ccc(C=O)c2c1C(CO)N1C(C#N)C3CC(C(=O)O)C(C1C2)N3C (stereo not shown) [Compound 7]
[1]; dose 200 mg/kg, single i.p., 24 hours after implantation of 1×10^6 P-388 cells, life-prolonging effect
  response vs control in vivo at 200 mg/kg: 138%

## COc1ccc(C#N)c2c1C(CO)N1C(C#N)C3CC(C(=O)O)C(C1C2)N3C (stereo not shown) [Compound 9]
[1]; 24 h
  response vs control in vivo at 25 mg/kg: 140%
[2]
  LD50: > 100 mg/kg

## COc1ccc(C#N)c2c1C1COC3C4CC(C(=O)O)C(C(C2)N13)N4C (stereo not shown) [Compound 10]
[2]
  LD50: > 50 mg/kg

## COc1ccc(O)c2c1C(CO)N1C(C#N)C3CC(C(=O)O)C(C1C2)N3C (stereo not shown) [Compound 11]
[1]; [7]
  response vs control in vivo at 25 mg/kg: 142%

## COc1cccc2c1C1COC3C4CC(C(=O)O)C(C(C2)N13)N4C (stereo not shown) [DC-52]
[3]
  anti-tumor activity against lymphocytic leukemia P-388 and the like: has anti-tumor activity against lymphocytic leukemia P-388 and the like
[4]
  antibacterial activity: shows antibacterial activity against a variety of bacteria

## COc1cccc2c1C(CO)N1C(C#N)C3CC(C(=O)O)C(C1C2)N3C (stereo not shown) [DX-52-1]
[5]
  anti-tumor activity: having anti-tumor activity

Reference: patent US4946957A, “Anti-tumor DC-52 derivatives” (Kyowa Hakko Kogyo Co., Ltd., priority 1986, dated 1990)
